Test system: human childhood brain tumor cell lines (PFSK-1)
Test: Growth inhibitory activity against PFSK-1 cells (WST-8, Cell Counting Kit-8)
Assay type: cell-based
Conditions: 3 days incubation with test compound, WST-8 OD 450/630 nm, read-out: IC50 (concentration inhibiting 50% of the cell growth)
Protocol: The growth inhibitory activity against human childhood brain tumor cell lines (PFSK-1) was measured with WST-8 reagent [2-(2-methoxy-4-nitrophenyl)-3-(4-nitrophenyl)-5-(2,4-disulfophenyl)-2H-tetrazolium monosodium salt, Cell Counting Kit-8™], according to the method described in Tominaga, H. et al., Anal. Commun., 1999, 36, 47-50. Briefly, PFSK-1 was seeded in 96-well microplate at 100 μL/well with Roswell Park Memorial Institute (RPMI) 1640 medium containing 10% fetal bovine serum (FBS), and the cells were incubated in the presence of 5% carbon dioxide (CO2) at 37° C. for 24 hours. 50 μL of each test compound diluted with the medium was added to each well, and then the cells were incubated further for 3 days. After the incubation, 15 μL of Cell Counting Kit-8™ was added to each well, and the cells were incubated for one and half hours. Then, optical density (OD) values at measurement wavelength 450 nm and reference wavelength 630 nm were measured and the difference thereof was calculated. From the calculated difference, the OD value difference (at measurement wavelength 450 nm and reference wavelength 630 nm) of the control well which includes no cell was subtracted to afford cell-growth activity in each well.
The cell growth inhibitory activity of each test compound was calculated by comparing the cell-growth activity with each test compound to the cell-growth activity without any test compound (control), and each IC50 (nM) which is the concentration inhibiting 50% of the cell growth was calculated.

IC50	SMILES
2.9 nM	CC1CC(=O)NN=C1c1ccc(OC[C@H]2C[C@@H]2CO)c(Cl)c1F (relative stereo) [Example 156, 6-(3-Chloro-2-fluoro-4-{[(1S*,2S*)-2-(hydroxymethyl)cyclopropyl]methoxy}phenyl)-5-methyl-4,5-dihydro-2H-pyridazin-3-one]

Same assay, conditions: Homo sapiens, 72 h, 3 days incubation with test compound, WST-8 OD 450/630 nm, read-out: IC50 (concentration inhibiting 50% of the cell growth)

SMILES	IC50
CC1CC(=O)NN=C1c1cc(Cl)c(OCC(C)(C)O)c(Br)c1 (centres unmarked) [Example 1, 6-[3-bromo-5-chloro-4-(2-hydroxy-2-methylpropoxy)phenyl]-5-methyl-4,5-dihydro-2H-pyridazin-3-one]	1.1 nM
CC1CC(=O)NN=C1c1cc(Cl)c(OCC(C)(C)O)c(Cl)c1 (centres unmarked) [Example 2, 6-[3,5-dichloro-4-(2-hydroxy-2-methylpropoxy)phenyl]-5-methyl-4,5-dihydro-2H-pyridazin-3-one]	1 nM
CC1CC(=O)NN=C1c1cc(F)c(OCC(C)(C)CO)c(F)c1 (centres unmarked) [Example 6, 6-[3,5-Difluoro-4-(3-hydroxy-2,2-dimethylpropoxy)phenyl]-5-methyl-4,5-dihydro-2H-pyridazin-3-one]	3.8 nM
CC1CC(=O)NN=C1c1cc(F)c(OCC(C)(C)CO)c(Cl)c1 (centres unmarked) [Example 7, 6-[3-chloro-5-fluoro-4-(3-hydroxy-2,2-dimethylpropoxy)phenyl]-5-methyl-4,5-dihydro-2H-pyridazin-3-one]	1 nM
Cc1c(OCC(C)(C)CO)ccc(C2=NNC(=O)CC2C)c1F (centres unmarked) [Example 8, 6-[2-Fluoro-4-(3-hydroxy-2,2-dimethylpropoxy)-3-methylphenyl]-5-methyl-4,5-dihydro-2H-pyridazin-3-one]	7.9 nM
CC1CC(=O)NN=C1c1ccc(OCC(C)(C)CO)c(F)c1F (centres unmarked) [Example 9, 6-[2,3-Difluoro-4-(3-hydroxy-2,2-dimethylpropoxy)phenyl]-5-methyl-4,5-dihydro-2H-pyridazin-3-one]	4.2 nM
CC1CC(=O)NN=C1c1ccc(OCCCO)c(F)c1F (centres unmarked) [Example 10, 6-[2,3-Difluoro-4-(3-hydroxypropoxy)phenyl]-5-methyl-4,5-dihydro-2H-pyridazin-3-one]	3.7 nM
CC1CC(=O)NN=C1c1cc(F)c(OCCCO)c(Br)c1 (centres unmarked) [Example 11, 6-[3-Bromo-5-fluoro-4-(3-hydroxypropoxy)phenyl]-5-methyl-4,5-dihydro-2H-pyridazin-3-one]	3 nM
CC1CC(=O)NN=C1c1ccc(OCCCO)c(Br)c1F (centres unmarked) [Example 12, 6-[3-bromo-2-fluoro-4-(3-hydroxypropoxy)phenyl]-5-methyl-4,5-dihydro-2H-pyridazin-3-one]	1.9 nM
Cc1cc(C2=NNC(=O)CC2C)cc(C)c1OCCCO (centres unmarked) [Example 14, 6-[4-(3-Hydroxypropoxy)-3,5-dimethylphenyl]-5-methyl-4,5-dihydro-2H-pyridazin-3-one]	8 nM
CC1CC(=O)NN=C1c1cc(F)c(OCCCO)c(Cl)c1 (centres unmarked) [Example 15, 6-[3-Chloro-5-fluoro-4-(3-hydroxypropoxy)phenyl]-5-methyl-4,5-dihydro-2H-pyridazin-3-one]	4 nM
CC1CC(=O)NN=C1c1cc(Cl)c(OCCCO)c(Cl)c1 (centres unmarked) [Example 16, 6-[3,5-Dichloro-4-(3-hydroxypropoxy)phenyl]-5-methyl-4,5-dihydro-2H-pyridazin-3-one]	3.6 nM
CC1CC(=O)NN=C1c1ccc(OCCCO)c(Cl)c1F (centres unmarked) [Example 19, 6-[3-chloro-2-fluoro-4-(3-hydroxypropoxy)phenyl]-5-methyl-4,5-dihydro-2H-pyridazin-3-one]	1.3 nM
Cc1cc(C2=NNC(=O)CC2C)cc(F)c1OCCCO (centres unmarked) [Example 20, 6-[3-Fluoro-4-(3-hydroxypropoxy)-5-methylphenyl]-5-methyl-4,5-dihydro-2H-pyridazin-3-one]	4.2 nM
Cc1c(OCCCO)ccc(C2=NNC(=O)CC2C)c1F (centres unmarked) [Example 21, 6-[2-Fluoro-4-(3-hydroxypropoxy)-3-methylphenyl]-5-methyl-4,5-dihydro-2H-pyridazin-3-one]	4 nM

More lines, now with the values ahead:

IC50	SMILES
2.9 nM	CC1CC(=O)NN=C1c1ccc(OC[C@H]2C[C@H]2CO)c(Cl)c1F (relative stereo) [Example 154, 6-(3-Chloro-2-fluoro-4-{[(1S*,2R*)-2-(hydroxymethyl)cyclopropyl]methoxy}phenyl)-5-methyl-4,5-dihydro-2H-pyridazin-3-one]
2.2 nM	Cc1cc(C2=NNC(=O)CC2C)cc(Cl)c1OC[C@H]1C[C@H]1CO (relative stereo) [Example 155, 6-(3-Chloro-4-{[(1 S*,2R*)-2-(hydroxymethyl)cyclopropyl]methoxy}-5-methylphenyl)-5-methyl-4,5-dihydro-2H-pyridazin-3-one]
1.9 nM	Cc1cc(C2=NNC(=O)CC2C)c(F)c(Cl)c1OCCCO (centres unmarked) [Example 22, 6-[3-chloro-2-fluoro-4-(3-hydroxypropoxy)-5-methylphenyl]-5-methyl-4,5-dihydro-2H-pyridazin-3-one]
8 nM	CCc1c(OCCCO)ccc(C2=NNC(=O)CC2C)c1F (centres unmarked) [Example 23, 6-[3-Ethyl-2-fluoro-4-(3-hydroxypropoxy)phenyl]-5-methyl-4,5-dihydro-2H-pyridazin-3-one]
1.7 nM	CC1CC(=O)NN=C1c1ccc(OCC(C)(C)O)c(Br)c1F (centres unmarked) [Example 24, 6-[3-bromo-2-fluoro-4-(2-hydroxy-2-methylpropoxy)phenyl]-5-methyl-4,5-dihydro-2H-pyridazin-3-one]
2.6 nM	CC1CC(=O)NN=C1c1cc(F)c(OCC(C)(C)O)c(Cl)c1 (centres unmarked) [Example 25, 6-[3-Chloro-5-fluoro-4-(2-hydroxy-2-methylpropoxy)phenyl]-5-methyl-4,5-dihydro-2H-pyridazin-3-one]
2 nM	CC1CC(=O)NN=C1c1cc(F)c(OCC(C)(C)O)c(Br)c1 (centres unmarked) [Example 26, 6-[3-bromo-5-fluoro-4-(2-hydroxy-2-methylpropoxy)phenyl]-5-methyl-4,5-dihydro-2H-pyridazin-3-one]
6.3 nM	Cc1c(OCC(C)(C)O)ccc(C2=NNC(=O)CC2C)c1O (centres unmarked) [Example 28, 6-[2-Hydroxy-4-(2-hydroxy-2-methylpropoxy)-3-methylphenyl]-5-methyl-4,5-dihydro-2H-pyridazin-3-one]
1.1 nM	Cc1cc(C2=NNC(=O)CC2C)cc(Cl)c1OCC(C)(C)O (centres unmarked) [Example 31, 6-[3-chloro-4-(2-hydroxy-2-methylpropoxy)-5-methylphenyl]-5-methyl-4,5-dihydro-2H-pyridazin-3-one]
4 nM	Cc1cc(C2=NNC(=O)CC2C)cc(C)c1OCC(C)(C)O (centres unmarked) [Example 32, 6-[4-(2-Hydroxy-2-methylpropoxy)-3,5-dimethylphenyl]-5-methyl-4,5-dihydro-2H-pyridazin-3-one]
5.1 nM	Cc1cc(C2=NNC(=O)CC2C)cc(F)c1OCC(C)(C)O (centres unmarked) [Example 33, 6-[3-Fluoro-4-(2-hydroxy-2-methylpropoxy)-5-methylphenyl]-5-methyl-4,5-dihydro-2H-pyridazin-3-one]
5.2 nM	Cc1c(OCC(C)(C)O)ccc(C2=NNC(=O)CC2C)c1F (centres unmarked) [Example 34, 6-[2-Fluoro-4-(2-hydroxy-2-methylpropoxy)-3-methylphenyl]-5-methyl-4,5-dihydro-2H-pyridazin-3-one]
6.3 nM	Cc1c(F)c(C2=NNC(=O)CC2C)cc(Cl)c1OCC(C)(C)O (centres unmarked) [Example 35, 6-[5-Chloro-2-fluoro-4-(2-hydroxy-2-methylpropoxy)-3-methylphenyl]-5-methyl-4,5-dihydro-2H-pyridazin-3-one]

Reference: patent publication US10611731B2, “5-methyl-6-phenyl-4,5-dihydro-2H-pyridazin-3-one derivative” (OTSUKA PHARMACEUTICAL CO., LTD., priority 2016, dated 2020)
